Results published in the supplement of paper PMC10981050.
Several values for one entry are separate records, joined by “and”; a condition that tells them apart may be missing. Identical values can stand only once. ± gives the standard deviation of the averaged measurements.

Tests used:
Assay in all cases: cell viability relative to vehicle control; higher = less cytotoxic
MOLM14 = system: MOLM14
Description: (§1)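 Isogenic SRSF2 WT and CRISPR SRSF2 P95 mutant clones of MOLM14, OCI-AML2 and MARIMO were exposed to ROCK inhibitors at 7 doses (0.037 to 29.9 µM) for 48 h. Viability was read by CellTiter-Glo luminescence and normalised to the vehicle control on each plate (%).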

MARIMO = conditions: SRSF2 genotype: SRSF2 WT
Description: as §1

OCI-AML2 = conditions: SRSF2 genotype: SRSF2 WT
Description: as §1

[1] = 0.037 µM, SRSF2 genotype: SRSF2 WT
[2] = 0.129 µM, SRSF2 genotype: SRSF2 WT
[3] = 0.369 µM, SRSF2 genotype: SRSF2 WT
[4] = 0.997 µM, SRSF2 genotype: SRSF2 WT
[5] = 3.49 µM, SRSF2 genotype: SRSF2 WT
[6] = 9.97 µM, SRSF2 genotype: SRSF2 WT
[7] = 29.9 µM, SRSF2 genotype: SRSF2 WT

Row | SMILES | cell viability (MOLM14; [1]) | cell viability (MOLM14; [2]) | cell viability (MOLM14; [3]) | cell viability (MOLM14; [4]) | cell viability (MOLM14; [5]) | cell viability (MOLM14; [6]) | cell viability (MOLM14; [7]) | cell viability (MARIMO; 0.037 µM) | cell viability (MARIMO; 0.129 µM) | cell viability (MARIMO; 0.369 µM) | cell viability (MARIMO; 0.997 µM) | cell viability (MARIMO; 3.49 µM) | cell viability (MARIMO; 9.97 µM) | cell viability (MARIMO; 29.9 µM) | cell viability (OCI-AML2; 0.037 µM) | cell viability (OCI-AML2; 0.129 µM) | cell viability (OCI-AML2; 0.369 µM) | cell viability (OCI-AML2; 0.997 µM) | cell viability (OCI-AML2; 3.49 µM) | cell viability (OCI-AML2; 9.97 µM) | cell viability (OCI-AML2; 29.9 µM) | cell viability (MOLM14; 0.037 µM, SRSF2 genotype: SRSF2 P95 mutant) | cell viability (MOLM14; 0.129 µM, SRSF2 genotype: SRSF2 P95 mutant)
1 | CC1=C(C(=O)Nc2ccc3[nH]ncc3c2)C(c2ccc(F)cc2)NC(=O)N1 (stereo not given) | 96.5 ± 12% | 96.7 ± 4.2% | 102 ± 14% | 95.8 ± 12% | 78.3 ± 14% | 66.3 ± 14% | 54.9 ± 10% | 102.6 ± 0.94% | 102 ± 2.7% | 100 ± 2.2% | 101 ± 4.8% | 96.1 ± 2.5% | 97.6 ± 13% | 99.8 ± 5.5% | 110 ± 6.1% | 103 ± 7.4% | 102 ± 4.6% | 101 ± 6.8% | 78.3 ± 5.9% | 48.1 ± 6.7% | 39 ± 4.3% |  | 
2 | C[C@@H](N)c1ccc(C(=O)Nc2ccnc3[nH]ccc23)cc1 | 90.1 ± 21% | 94 ± 13% | 87.1 ± 18% | 81.4 ± 17% | 51.8 ± 14% | 29.4 ± 7.5% | 7.13 ± 1.6% | 99.5 ± 4.6% | 101 ± 3.1% | 96.2 ± 1.6% | 101 ± 1.3% | 93.99 ± 0.9% | 84.1 ± 7.2% | 35.1 ± 0.58% | 104 ± 7.8% | 99.9 ± 1% | 93.2 ± 4.4% | 85 ± 1.9% | 52 ± 2% | 30.4 ± 4.6% | 7.89 ± 0.6% |  | 
3 | CC1=C(C(=O)Nc2cc3cn[nH]c3cc2F)C(c2ccc(C(F)(F)F)cc2)CC(=O)N1 (stereo not given) | 94 ± 18% | 96.4 ± 9.5% | 90.1 ± 19% | 82.5 ± 16% | 66.2 ± 16% | 60.3 ± 14% | 53 ± 13% | 103 ± 1.2% | 100.4 ± 0.44% | 96 ± 7.2% | 103 ± 5.5% | 98.9 ± 4.7% | 92.2 ± 11% | 95 ± 8.2% | 107 ± 1.6% | 101 ± 5% | 96.9 ± 7.2% | 93.11 ± 0.21% | 68 ± 7.8% | 43.5 ± 9.3% | 39.4 ± 6% | 112% and 102% and 97.1% | 107% and 105% and 103%
